Measurements as given in publication PMC11277489, “Novel Piperazine Derivatives of Vindoline as Anticancer Agents” (International Journal of Molecular Sciences, 2024).

Experiments:
[1] = test system: SF-268; test: NCI60 one-dose screen (10 μM), CNS Cancer; assay type: cell-based; conditions: Homo sapiens; 10 μM; SF-268, CNS Cancer; read-out: Growth percent rate
[2] = test system: RPMI-8226; test: NCI60 one-dose screen (10 μM), Leukemia; assay type: cell-based; conditions: Homo sapiens; 10 μM; RPMI-8226, Leukemia; read-out: Growth percent rate
[3] = test system: TK-10; test: NCI60 one-dose screen (10 μM), Renal Cancer; assay type: cell-based; conditions: Homo sapiens; 10 μM; TK-10, Renal Cancer; read-out: Growth percent rate
[4] = test system: SF-539; test: NCI60 one-dose screen (10 μM), CNS Cancer; assay type: cell-based, human; conditions: Homo sapiens; 10 μM; SF-539, CNS Cancer; read-out: Growth percent rate
[5] = test system: ACHN; test: NCI60 one-dose screen (10 μM), Renal Cancer; assay type: cell-based; conditions: Homo sapiens, 10 μM, Renal Cancer, read-out: Growth percent rate
[6] = test system: SNB-19; test: NCI60 one-dose screen (10 μM), CNS Cancer; assay type: cell-based; conditions: Homo sapiens; 10 μM; SNB-19, CNS Cancer; read-out: Growth percent rate
[7] = test system: SN12C; test: NCI60 one-dose screen (10 μM), Renal Cancer; assay type: cell-based; conditions: Homo sapiens, 10 μM, Renal Cancer, read-out: Growth percent rate
[8] = test system: HCT-15; test: NCI60 one-dose screen (10 μM), Colon Cancer; assay type: cell-based; conditions: Homo sapiens; 10 μM; HCT-15, Colon Cancer; read-out: Growth percent rate
[9] = test system: HT29; test: NCI60 one-dose screen (10 μM), Colon Cancer; assay type: cell-based; conditions: Homo sapiens, HT-29; 10 μM; HT29, Colon Cancer; read-out: Growth percent rate
[10] = test system: HL-60(TB); test: NCI60 one-dose screen (10 μM), Leukemia; assay type: cell-based; conditions: Homo sapiens; 10 μM; HL-60(TB), Leukemia; read-out: Growth percent rate
[11] = test system: OVCAR-4; test: NCI60 one-dose screen (10 μM), Ovarian Cancer; assay type: cell-based; conditions: Homo sapiens; 10 μM; OVCAR-4, Ovarian Cancer; read-out: Growth percent rate
[12] = test system: NCI-H23; test: NCI60 one-dose screen (10 μM), Non-small Cell Lung Cancer; assay type: cell-based; conditions: Homo sapiens; 10 μM; NCI-H23, Non-small Cell Lung Cancer; read-out: Growth percent rate
[13] = test system: CAKI-1; test: NCI60 one-dose screen (10 μM), Renal Cancer; assay type: cell-based; conditions: Homo sapiens; 10 μM; CAKI-1, Renal Cancer; read-out: Growth percent rate
[14] = test system: RXF 393; test: NCI60 one-dose screen (10 μM), Renal Cancer; assay type: cell-based, human; conditions: Homo sapiens; 10 μM; RXF 393, Renal Cancer; read-out: Growth percent rate
[15] = test system: COLO 205; test: NCI60 one-dose screen (10 μM), Colon Cancer; assay type: cell-based, human; conditions: Homo sapiens; 10 μM; COLO 205, Colon Cancer; read-out: Growth percent rate
[16] = test system: SK-MEL-28; test: NCI60 one-dose screen (10 μM), Melanoma; assay type: cell-based; conditions: Homo sapiens; 10 μM; SK-MEL-28, Melanoma; read-out: Growth percent rate
[17] = test system: MDA-MB-435; test: NCI60 one-dose screen (10 μM), Melanoma; assay type: cell-based; conditions: Homo sapiens; 10 μM; MDA-MB-435, Melanoma; read-out: Growth percent rate
[18] = test system: SK-MEL-2; test: NCI60 one-dose screen (10 μM), Melanoma; assay type: cell-based; conditions: Homo sapiens; 10 μM; SK-MEL-2, Melanoma; read-out: Growth percent rate
[19] = test system: OVCAR-8; test: NCI60 one-dose screen (10 μM), Ovarian Cancer; assay type: cell-based; conditions: Homo sapiens; 10 μM; OVCAR-8, Ovarian Cancer; read-out: Growth percent rate
[20] = test system: NCI-H522; test: NCI60 one-dose screen (10 μM), Non-small Cell Lung Cancer; assay type: cell-based; conditions: Homo sapiens; 10 μM; NCI-H522, Non-small Cell Lung Cancer; read-out: Growth percent rate
[21] = test system: HCT-116; test: NCI60 one-dose screen (10 μM), Colon Cancer; assay type: cell-based; conditions: Homo sapiens; 10 μM; HCT-116, Colon Cancer; read-out: Growth percent rate
[22] = test system: SW-620; test: NCI60 one-dose screen (10 μM), Colon Cancer; assay type: cell-based; conditions: Homo sapiens; 10 μM; SW-620, Colon Cancer; read-out: Growth percent rate
[23] = test system: NCI-H322M; test: NCI60 one-dose screen (10 μM), Non-small Cell Lung Cancer; assay type: cell-based; conditions: Homo sapiens, 10 μM, Non-small Cell Lung Cancer, read-out: Growth percent rate
[24] = test system: KM12; test: NCI60 one-dose screen (10 μM), Colon Cancer; assay type: cell-based, human; conditions: Homo sapiens; 10 μM; KM12, Colon Cancer; read-out: Growth percent rate
[25] = test system: MCF7; test: NCI60 one-dose screen (10 μM), Breast Cancer; assay type: cell-based; conditions: Homo sapiens; 10 μM; MCF7, Breast Cancer; read-out: Growth percent rate
[26] = test system: A549/ATCC; test: NCI60 one-dose screen (10 μM), Non-small Cell Lung Cancer; assay type: cell-based; conditions: Homo sapiens; 10 μM; A549/ATCC, Non-small Cell Lung Cancer; read-out: Growth percent rate
[27] = test system: CCRF-CEM; test: NCI60 one-dose screen (10 μM), Leukemia; assay type: cell-based; conditions: Homo sapiens, 10 μM, Leukemia, read-out: Growth percent rate
[28] = test system: MALME-3M; test: NCI60 one-dose screen (10 μM), Melanoma; assay type: cell-based; conditions: Homo sapiens; 10 μM; MALME-3M, Melanoma; read-out: Growth percent rate
[29] = test system: OVCAR-3; test: NCI60 one-dose screen (10 μM), Ovarian Cancer; assay type: cell-based; conditions: Homo sapiens; 10 μM; OVCAR-3, Ovarian Cancer; read-out: Growth percent rate
[30] = test system: 786–0; test: NCI60 one-dose screen (10 μM), Renal Cancer; assay type: cell-based; conditions: Homo sapiens; 10 μM; 786-0, Renal Cancer; read-out: Growth percent rate
[31] = test system: UACC-257; test: NCI60 one-dose screen (10 μM), Melanoma; assay type: cell-based; conditions: Homo sapiens; 10 μM; UACC-257, Melanoma; read-out: Growth percent rate
[32] = test system: HCC-2998; test: NCI60 one-dose screen (10 μM), Colon Cancer; assay type: cell-based; conditions: Homo sapiens; 10 μM; HCC-2998, Colon Cancer; read-out: Growth percent rate
[33] = test system: K-562; test: NCI60 one-dose screen (10 μM), Leukemia; assay type: cell-based; conditions: Homo sapiens, K562; 10 μM; K-562, Leukemia; read-out: Growth percent rate
[34] = test system: HOP-62; test: NCI60 one-dose screen (10 μM), Non-small Cell Lung Cancer; assay type: cell-based; conditions: Homo sapiens; 10 μM; HOP-62, Non-small Cell Lung Cancer; read-out: Growth percent rate
[35] = test system: LOX IMVI; test: NCI60 one-dose screen (10 μM), Melanoma; assay type: cell-based, human; conditions: Homo sapiens; 10 μM; LOX IMVI, Melanoma; read-out: Growth percent rate
[36] = test system: HS 578T; test: NCI60 one-dose screen (10 μM), Breast Cancer; assay type: cell-based; conditions: Homo sapiens; 10 μM; HS 578T, Breast Cancer; read-out: Growth percent rate
[37] = test system: SK-MEL-5; test: NCI60 one-dose screen (10 μM), Melanoma; assay type: cell-based, human; conditions: Homo sapiens; 10 μM; SK-MEL-5, Melanoma; read-out: Growth percent rate
[38] = test system: EKVX; test: NCI60 one-dose screen (10 μM), Non-small Cell Lung Cancer; assay type: cell-based; conditions: Homo sapiens, 10 μM, Non-small Cell Lung Cancer, read-out: Growth percent rate
[39] = test system: IGROV1; test: NCI60 one-dose screen (10 μM), Ovarian Cancer; assay type: cell-based; conditions: Homo sapiens, IGROV-1; 10 μM; IGROV1, Ovarian Cancer; read-out: Growth percent rate
[40] = test system: SF-295; test: NCI60 one-dose screen (10 μM), CNS Cancer; assay type: cell-based; conditions: Homo sapiens; 10 μM; SF-295, CNS Cancer; read-out: Growth percent rate
[41] = test system: MOLT-4; test: NCI60 one-dose screen (10 μM), Leukemia; assay type: cell-based, human; conditions: Homo sapiens; 10 μM; MOLT-4, Leukemia; read-out: Growth percent rate
[42] = test system: M14; test: NCI60 one-dose screen (10 μM), Melanoma; assay type: cell-based; conditions: Homo sapiens; 10 μM; M14, Melanoma; read-out: Growth percent rate

Question: Which results are given for `CC[C@]12C=CCN3CC[C@@]4(c5ccc(OC)cc5N(C)[C@H]4[C@@](O)(C(=O)OC)[C@@H]1OC(=O)CCC(=O)N1CCN(Cc4ccc(F)cc4)CC1)[C@@H]32` [Compound 30]?
Answer: activity at 10 µM [1]: 50.8%; activity at 10 µM [2]: 46.3%; activity at 10 µM [3]: 60.6%; activity at 10 µM [4]: 78.7%; activity at 10 µM [5]: 71.3%; activity at 10 µM [6]: 69.5%; activity at 10 µM [7]: 71.2%; activity at 10 µM [8]: 79.5%; activity at 10 µM [9]: 60.5%; activity at 10 µM [10]: 82.2%; activity at 10 µM [11]: 56.4%; activity at 10 µM [12]: 83.4%; activity at 10 µM [13]: 28.1%; activity at 10 µM [14]: 60.1%; activity at 10 µM [15]: 66.7%; activity at 10 µM [16]: 104%; activity at 10 µM [17]: 85.7%; activity at 10 µM [18]: 90.2%; activity at 10 µM [19]: 73.7%; activity at 10 µM [20]: 59.7%; activity at 10 µM [21]: 67.8%; activity at 10 µM [22]: 102%; activity at 10 µM [23]: 97.2%; activity at 10 µM [24]: 83.6%; activity at 10 µM [25]: 62.2%; activity at 10 µM [26]: 55.4%; activity at 10 µM [27]: 61.4%; activity at 10 µM [28]: 93.3%; activity at 10 µM [29]: 63.7%; activity at 10 µM [30]: 84.2%; activity at 10 µM [31]: 86%; activity at 10 µM [32]: 85.3%; activity at 10 µM [33]: 65.2%; activity at 10 µM [34]: 88.4%; activity at 10 µM [35]: 71.8%; activity at 10 µM [36]: 78.5%; activity at 10 µM [37]: 62.6%; activity at 10 µM [38]: 60.2%; activity at 10 µM [39]: 68.4%; activity at 10 µM [40]: 67.9%; activity at 10 µM [41]: 59.4%; activity at 10 µM [42]: 61%
